Source: PubChem BioAssay AID1963978 (Molecular Pharmacology Branch, DTP, NCI, 2024)

Test system: 616215-338-R-J1-PDC spheroids with HUVEC/MSC, viability
Experiment: Anticancer human tumor 616215-338-R-J1-PDC patient-derived colon adenocarcinoma cell line growth inhibition [PI3K]
Conditions: for IC50: curve of first compound; for viability, T/C: stronger effect = lower value
Summary of the method: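 Multi-cell spheroids combine tumor cells with HUVEC and human MSCs, treated with targeted agents alone or with inavolisib, alpelisib, duvelisib or copanlisib. Concentrations fall in half-log steps from at or near clinical Cmax, or from 10 microM where Cmax is unknown; viability read-out.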

[1] = second compound 0.0316 µM, first compound 0.00316 µM
[2] = second compound 0.0316 µM, first compound 0.01 µM
[3] = second compound 0.0316 µM, first compound 0.0316 µM
[4] = second compound 0.0316 µM, first compound 0.1 µM
[5] = second compound 0.1 µM, first compound 0.00316 µM
[6] = second compound 0.1 µM, first compound 0.01 µM
[7] = second compound 0.1 µM, first compound 0.0316 µM
[8] = second compound 0.1 µM, first compound 0.1 µM
[9] = second compound 0.316 µM, first compound 0.00316 µM
[10] = second compound 0.316 µM, first compound 0.01 µM
[11] = second compound 0.316 µM, first compound 0.0316 µM
[12] = second compound 0.316 µM, first compound 0.1 µM
[13] = second compound 1 µM, first compound 0.00316 µM
[14] = second compound 1 µM, first compound 0.01 µM
[15] = second compound 1 µM, first compound 0.0316 µM
[16] = second compound 1 µM, first compound 0.1 µM
[17] = second compound 3.16 µM, first compound 0.00316 µM
[18] = second compound 3.16 µM, first compound 0.01 µM
[19] = second compound 3.16 µM, first compound 0.0316 µM
[20] = second compound 3.16 µM, first compound 0.1 µM
[21] = second compound 10 µM, first compound 0.00316 µM
[22] = second compound 10 µM, first compound 0.01 µM
[23] = second compound 10 µM, first compound 0.0316 µM
[24] = second compound 10 µM, first compound 0.1 µM
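Note: spheroids exposed to agents for seven days before the viability read.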

## CCN1CCN(Cc2ccc(Nc3ncc(F)c(-c4cc(F)c5nc(C)n(C(C)C)c5c4)n3)nc2)CC1 + Cc1nc(NC(=O)N2CCCC2C(N)=O)sc1-c1ccnc(C(C)(C)C(F)(F)F)c1
Second compound 0.0316 µM
  IC50: > 1000 nM
Second compound 0.1 µM
  IC50: > 1000 nM
Second compound 0.316 µM
  IC50: > 1000 nM
Second compound 1 µM
  IC50: > 1000 nM
Second compound 3.16 µM
  IC50: > 1000 nM
Second compound 10 µM
  IC50: > 1000 nM
[1]
  viability, T/C: 94%
[2]
  viability, T/C: 90.8%
[3]
  viability, T/C: 98.5%
[4]
  viability, T/C: 101%
Second compound 0.0316 µM, first compound 0.316 µM
  viability, T/C: 110%
Second compound 0.0316 µM, first compound 1 µM
  viability, T/C: 134%
[5]
  viability, T/C: 107%
[6]
  viability, T/C: 120%
[7]
  viability, T/C: 96.9%
[8]
  viability, T/C: 105%
Second compound 0.1 µM, first compound 0.316 µM
  viability, T/C: 114%
Second compound 0.1 µM, first compound 1 µM
  viability, T/C: 113%
[9]
  viability, T/C: 113%
[10]
  viability, T/C: 104%
[11]
  viability, T/C: 111%
[12]
  viability, T/C: 115%
Second compound 0.316 µM, first compound 0.316 µM
  viability, T/C: 131%
Second compound 0.316 µM, first compound 1 µM
  viability, T/C: 110%
[13]
  viability, T/C: 92.5%
[14]
  viability, T/C: 99%
[15]
  viability, T/C: 101%
[16]
  viability, T/C: 108%
Second compound 1 µM, first compound 0.316 µM
  viability, T/C: 120%
Second compound 1 µM, first compound 1 µM
  viability, T/C: 83.9%
[17]
  viability, T/C: 96.7%
[18]
  viability, T/C: 105%
[19]
  viability, T/C: 106%
[20]
  viability, T/C: 103%
Second compound 3.16 µM, first compound 0.316 µM
  viability, T/C: 91.9%
Second compound 3.16 µM, first compound 1 µM
  viability, T/C: 84.1%
[21]
  viability, T/C: 91.3%
[22]
  viability, T/C: 82.7%
[23]
  viability, T/C: 92.3%
[24]
  viability, T/C: 74.6%
Second compound 10 µM, first compound 0.316 µM
  viability, T/C: 68.9%
Second compound 10 µM, first compound 1 µM
  viability, T/C: 52.1%

## CC1(C)CCC(Nc2ncc(C(F)(F)F)c(-c3c[nH]c4c(P(C)(C)=O)c(C#N)ccc34)n2)CN1 (stereo not given)
Compound 0.1 µM
  viability, T/C: 54.8% [middle of 4 runs]
Compound 1 µM
  viability, T/C: 60.8% [middle of 4 runs]
Compound 3.16 µM
  viability, T/C: 55.7% [middle of 4 runs]
Compound 10 µM
  viability, T/C: 0.49% [middle of 4 runs]

## CC(=O)c1c(C)c2cnc(Nc3ccc(N4CCNCC4)cn3)nc2n(C2CCCC2)c1=O + CC(Nc1ncnc2nc[nH]c12)c1cc2cccc(Cl)c2c(=O)n1-c1ccccc1
Second compound 0.0316 µM
  IC50: > 100 nM
Second compound 0.1 µM
  IC50: > 100 nM
Second compound 0.316 µM
  IC50: > 100 nM
Second compound 1 µM
  IC50: > 100 nM
Second compound 3.16 µM
  IC50: > 100 nM
Second compound 10 µM
  IC50: > 100 nM
Second compound 0.0316 µM, first compound 0.000316 µM
  viability, T/C: 106%
Second compound 0.0316 µM, first compound 0.001 µM
  viability, T/C: 104%
[1]
  viability, T/C: 93.2%
[2]
  viability, T/C: 93.3%
[3]
  viability, T/C: 92.5%
[4]
  viability, T/C: 102%
Second compound 0.1 µM, first compound 0.000316 µM
  viability, T/C: 98.7%
Second compound 0.1 µM, first compound 0.001 µM
  viability, T/C: 105%
[5]
  viability, T/C: 99.6%
[6]
  viability, T/C: 106%
[7]
  viability, T/C: 104%
[8]
  viability, T/C: 118%
Second compound 0.316 µM, first compound 0.000316 µM
  viability, T/C: 110%
Second compound 0.316 µM, first compound 0.001 µM
  viability, T/C: 95.2%
[9]
  viability, T/C: 98.4%
[10]
  viability, T/C: 92.3%
[11]
  viability, T/C: 106%
[12]
  viability, T/C: 114%
Second compound 1 µM, first compound 0.000316 µM
  viability, T/C: 98.2%
Second compound 1 µM, first compound 0.001 µM
  viability, T/C: 104%
[13]
  viability, T/C: 99.5%
[14]
  viability, T/C: 107%
[15]
  viability, T/C: 113%
[16]
  viability, T/C: 110%
Second compound 3.16 µM, first compound 0.000316 µM
  viability, T/C: 115%
Second compound 3.16 µM, first compound 0.001 µM
  viability, T/C: 88.1%
[17]
  viability, T/C: 99.2%
[18]
  viability, T/C: 112%
[19]
  viability, T/C: 101%
[20]
  viability, T/C: 103%
Second compound 10 µM, first compound 0.000316 µM
  viability, T/C: 97.8%
Second compound 10 µM, first compound 0.001 µM
  viability, T/C: 94%
[21]
  viability, T/C: 122%
[22]
  viability, T/C: 118%
[23]
  viability, T/C: 104%
[24]
  viability, T/C: 90.9%

## Cn1cnc2c(F)c(Nc3ccc(Br)cc3Cl)c(C(=O)NOCCO)cc21 + CC(Nc1ccc2c(c1)OCCn1cc(N3C(=O)OCC3C(F)F)nc1-2)C(N)=O
Second compound 0.00316 µM
  IC50: 1400 nM
Second compound 0.01 µM
  IC50: 1160 nM
Second compound 0.0316 µM
  IC50: 764 nM
Second compound 0.1 µM
  IC50: 982 nM
Second compound 0.316 µM
  IC50: 495 nM
Second compound 1 µM
  IC50: 408 nM
Second compound 0.00316 µM, first compound 0.00949 µM
  viability, T/C: 96.5%
Second compound 0.00316 µM, first compound 0.03 µM
  viability, T/C: 98.9%
Second compound 0.00316 µM, first compound 0.0949 µM
  viability, T/C: 83.7%
Second compound 0.00316 µM, first compound 0.3 µM
  viability, T/C: 76%
Second compound 0.00316 µM, first compound 0.949 µM
  viability, T/C: 56.8%
Second compound 0.00316 µM, first compound 3 µM
  viability, T/C: 36.5%
Second compound 0.01 µM, first compound 0.00949 µM
  viability, T/C: 94.6%
Second compound 0.01 µM, first compound 0.03 µM
  viability, T/C: 91%
Second compound 0.01 µM, first compound 0.0949 µM
  viability, T/C: 87.8%
Second compound 0.01 µM, first compound 0.3 µM
  viability, T/C: 71.8%
Second compound 0.01 µM, first compound 0.949 µM
  viability, T/C: 54.7%
Second compound 0.01 µM, first compound 3 µM
  viability, T/C: 31.4%
Second compound 0.0316 µM, first compound 0.00949 µM
  viability, T/C: 96.1%
Second compound 0.0316 µM, first compound 0.03 µM
  viability, T/C: 110%
Second compound 0.0316 µM, first compound 0.0949 µM
  viability, T/C: 77.2%
Second compound 0.0316 µM, first compound 0.3 µM
  viability, T/C: 77.5%
Second compound 0.0316 µM, first compound 0.949 µM
  viability, T/C: 38.3%
Second compound 0.0316 µM, first compound 3 µM
  viability, T/C: 38.8%
Second compound 0.1 µM, first compound 0.00949 µM
  viability, T/C: 106%
Second compound 0.1 µM, first compound 0.03 µM
  viability, T/C: 86.9%
Second compound 0.1 µM, first compound 0.0949 µM
  viability, T/C: 87.2%
Second compound 0.1 µM, first compound 0.3 µM
  viability, T/C: 65.2%
Second compound 0.1 µM, first compound 0.949 µM
  viability, T/C: 48.9%
Second compound 0.1 µM, first compound 3 µM
  viability, T/C: 37%
Second compound 0.316 µM, first compound 0.00949 µM
  viability, T/C: 109%
Second compound 0.316 µM, first compound 0.03 µM
  viability, T/C: 94.8%
Second compound 0.316 µM, first compound 0.0949 µM
  viability, T/C: 79.4%
Second compound 0.316 µM, first compound 0.3 µM
  viability, T/C: 57.4%
Second compound 0.316 µM, first compound 0.949 µM
  viability, T/C: 39%
Second compound 0.316 µM, first compound 3 µM
  viability, T/C: 35.9%
Second compound 1 µM, first compound 0.00949 µM
  viability, T/C: 106%
Second compound 1 µM, first compound 0.03 µM
  viability, T/C: 85.1%
Second compound 1 µM, first compound 0.0949 µM
  viability, T/C: 79.7%
Second compound 1 µM, first compound 0.3 µM
  viability, T/C: 51.6%
Second compound 1 µM, first compound 0.949 µM
  viability, T/C: 37.5%
Second compound 1 µM, first compound 3 µM
  viability, T/C: 26.4%
